Experiment [1] has as its system acute noxious thermal stimulus (tail withdrawal reflex). Nature of the experiment: Low-intensity tail flick test (rat). The format is in vivo. The settings on record: dose 21.5 mg/kg. How it is done:
Method II. Low-Intensity Tail Flick Test (Rat) In the low-intensity tail flick test, the determination of the antinociceptive effect of the compounds according to the invention towards an acute noxious thermal stimulus is carried out by measuring the withdrawal reflex of the rat tail (tail flick) in response to a radiant heat beam (analgesia meter; model 2011 of the company Rhema Labortechnik, Hofheim, Germany) according to the method described by D'Amour and Smith (J. Pharm. Exp. Ther. 72, 74 79 (1941). To this end, the rats were placed in a plexiglas restrainer, and a low-intensity radiant heat beam (48° C.) was focused onto the dorsal surface of the tail root. […] Before administration of a compound according to the invention, the animals were pre-tested twice in the course of five minutes and the mean of these measurements was calculated as the pre-test mean. The antinociceptive effect was determined at 20, 40 and 60 min after peroral compound administration. The antinociceptive effect was calculated based on the increase in the tail withdrawal latency according to the following formula and is expressed as percentage of the maximum possible effect (MPE [%]): MPE=[(T1−T0)/(T2−T0)]*100 In this, T0 is the control latency time before and T1 the latency time after administration of the compound, T2 is the cutoff time and MPE is the maximum possible effect. […]
In general terms: In hot-plate and tail-flick tests a longer latency is read as antinociception.

Experiment [2] concerns formalin-induced nociceptive behaviour, second (late) phase. Nature of the experiment: Formalin test carried out on mice. The class given is in vivo. How it is done:
Method III. Formalin Test Carried Out on Mice In the formalin test, the testing to determine the antinociceptive effect of the compounds according to the invention is carried out on male mice (NMRI, 20 to 30 g body weight, Iffa, Credo, Belgium). In the formalin test as described by D. Dubuisson et al., Pain 1977, 4, 161-174, a distinction is drawn between the first (early) phase (up to 10 minutes after the injection of formalin) and the second (late) phase (up to 60 minutes after the injection of formalin). The early phase, as an immediate reaction to the injection of formalin, is a model of acute pain, whereas the late phase is regarded as a model of persistent (chronic) pain (T. J. Coderre et al., Pain 1993, 52, 259-285). […] Subsequently, the nociceptive behaviour is continuously detected by observing the animals over a test period of three minutes in the second (late) phase of the formalin test (21 to 24 minutes after the injection of formalin). The pain behaviour is quantified by adding up the seconds over which the animals display licking and biting of the paw in question during the test period. […] Based on the quantification of the pain behaviour, the effect of the substance is determined in the formalin test as a percentage change relative to the corresponding control. […]

Experiment [3] has as its target T1, KCNQ2/3 channels (Homo sapiens, UniProt O43525+O43526).
T1 construct: expressed in transfected cells; host or cells: CHO-K1 cells, kept under selection antibiotics
Nature of the experiment: Fluorescence assay using a voltage sensitive dye (fluorimetry). The class given is cell-based. The settings on record: CHO-K1 cells expressing KCNQ2/3 channels; for Emax: relative to retigabine = 100%, read-out: Fluorimetry % efficacy (retigabine = 100%). As for the experimental part: Pharmacological Experiments Method I. Fluorescence Assay Using a Voltage Sensitive Dye (Fluorimetry)
[…] CHO-K1 cells expressing KCNQ2/3 channels are cultivated adherently at 37° C., 5% CO2 and 95% humidity in cell culture bottles (e.g. 80 cm^2 TC flasks, Nunc) with DMEM-high glucose (Sigma Aldrich, D7777) including 10% FCS (PAN Biotech, e.g. 3302-P270521) or alternatively MEM Alpha Medium (1×, liquid, Invitrogen, #22571), 10% fetal calf serum (FCS) (Invitrogen, #10270-106, heat-inactivated) and the necessary selection antibiotics.
Before being sown out for the measurements, the cells are washed with 1×DPBS buffer Ca^2+/Mg^2+-free (e.g. Invitrogen, #14190-094) and detached from the bottom of the culture vessel by using Accutase (PAA Laboratories, #L11-007) (incubation with Accutase for 15 min at 37° C.). The cell number is determined using a CASY™ cell counter (TCC, Schärfe System). Depending on the optimal density for each individual cell line, 20,000-30,000 cells/well/100 μl are seeded onto 96-well Corning™ CellBIND™ assay plates (Flat Clear Bottom Black Polystyrene Microplates, #3340). Freshly seeded cells are then left to settle for one hour at room temperature, followed by incubation for 24 hours at 37° C., 5% CO2 and 95% humidity.
The voltage-sensitive fluorescent dye from the Membrane Potential Assay Kit (Red™ Bulk format part R8123 for FLIPR, MDS Analytical Technologies™) is prepared by dissolving the contents of one vessel Membrane Potential Assay Kit Red Component A in 200 ml of extracellular buffer (ES buffer, 120 mM NaCl, 1 mM KCl, 10 mM HEPES, 2 mM CaCl2, 2 mM MgCl2, 10 mM glucose; pH 7.4). After removal of the nutrient medium, the cells are washed once with 200 μl of ES buffer, then loaded for 45 min at room temperature in 100 μl of dye solution in the dark.
Fluorescence measurements are carried out in a BMG Labtech FLUOstar™, BMG Labtech NOVOstar™ or BMG Labtech POLARstar™ instrument (525 nm excitation, 560 nm emission, Bottom Read mode). After incubation with the dye, 50 μl of the test substances in the desired concentrations, or 50 μl of ES buffer for control purposes, are applied to the wells of the assay plate and incubated for 30 min at room temperature while being shielded from light. The fluorescence intensity of the dye is then measured for 5 min and the fluorescence value F1 of each well is thus determined at a given, constant time. 15 μl of a KCl solution are then added to each well (final concentration of potassium ions 92 mM). The change in fluorescence intensity is subsequently monitored until all the relevant values have been obtained (mainly 5-30 min). At a given time post KCl application, a fluorescence value F2 is determined, in this case at the time of the fluorescence peak.
For calculation, the fluorescence intensity F2 is corrected for the fluorescence intensity F1, and the activity (ΔF/F) of the target compound on the potassium channel is determined as follows:
In order to determine whether a substance has agonistic activity,
[formula] can be related to
[formula] of control wells.
[formula] is determined by adding to the well only the buffer solution instead of the test substance, determining the value F1K of the fluorescence intensity, adding the potassium ions as described above, and measuring a value F2K of the fluorescence intensity. F2K and F1K are then calculated as follows: […]
A substance has an agonistic activity on the potassium channel if
[formula] is greater than
Independently of the comparison of
[formula] it is possible to conclude that a target compound has agonistic activity if
[formula] increases dose dependently.
Calculations of EC50 and IC50 values are carried out with the aid of ‘Prism v4.0’ software (GraphPad Software™).

Take `CCNc1nc2cc(C(F)(F)F)ccc2c(C)c1C(=O)NCc1cccc(F)c1` [Example 1, 2-ethylamino-N-[(3-fluorophenyl)-methyl]-4-methyl-7-(trifluoromethyl)-quinoline-3-carboxylic acid amide]: in experiment [1], the “Low intensity tail flick, rat, peroral, MPE (dose)” value is recorded as 44% (21.5). In addition, the “Formalin test, mice, intravenous, MPE (dose)” value in experiment [2] (dose 4.64 mg/kg) is reported as 71% (4.64). In addition, in experiment [3], the EC50 is 252 nM and the Emax was found to be 141%.

`Cc1c(C(=O)NCc2cccc(F)c2)c(N2CCCC2)nc2cc(C(F)(F)F)ccc12` [Example 2, N-[(3-fluorophenyl)-methyl]-4-methyl-2-pyrrolidin-1-yl-7-(trifluoromethyl)-quinoline-3-carboxylic acid amide]: in experiment [3], the EC50 came to 801 nM and the Emax was determined as 186%.

Turning to `Cc1c(C(=O)NCc2ccc(F)cc2)c(N(C)C)nc2cc(C(F)(F)F)ccc12` [Example 3, 2-dimethylamino-N-[(4-fluorophenyl)-methyl]-4-methyl-7-(trifluoromethyl)-quinoline-3-carboxylic acid amide], in experiment [3], the response was half-maximal at 350 nM (EC50) and the Emax stood at 105%.

Regarding `Cc1c(C(=O)NCc2cccc(F)c2)c(N(C)C)nc2cc(C(F)(F)F)ccc12` [Example 4, 2-dimethylamino-N-[(3-fluorophenyl)-methyl]-4-methyl-7-(trifluoromethyl)-quinoline-3-carboxylic acid amide], in experiment [3], the EC50 was found to be 510 nM and the Emax was 140%.

Consider `CCN(CC)c1nc2cc(C(F)(F)F)ccc2c(C)c1C(=O)NCc1ccc(F)cc1` [Example 5, 2-diethylamino-N-[(4-fluorophenyl)-methyl]-4-methyl-7-(trifluoromethyl)-quinoline-3-carboxylic acid amide], for which, in experiment [3], the EC50 came out at 721 nM and the Emax came to 205%.

For the compound `Cc1c(C(=O)NCc2ccc(F)cc2)c(N2CCCC2)nc2cc(C(F)(F)F)ccc12` [Example 6, N-[(4-fluorophenyl)-methyl]-4-methyl-2-pyrrolidin-1-yl-7-(trifluoromethyl)-quinoline-3-carboxylic acid amide], in experiment [3], the response was half-maximal at 593 nM (EC50) and the Emax stood at 204%.

In the case of `CCN(CC)c1nc2cc(C(F)(F)F)ccc2c(C)c1C(=O)NCc1cccc(F)c1` [Example 7, 2-diethylamino-N-[(3-fluorophenyl)-methyl]-4-methyl-7-(trifluoromethyl)-quinoline-3-carboxylic acid amide], the “Formalin test, mice, intravenous, MPE (dose)” value in experiment [2] (dose 10.0 mg/kg) is recorded as 65% (10.0). In experiment [3], the EC50 was determined as 466 nM and the Emax is 199%.

Take `CCNc1nc2cc(C(F)(F)F)ccc2c(C)c1C(=O)NCc1ccc(F)cc1` [Example 8, 2-ethylamino-N-[(4-fluorophenyl)-methyl]-4-methyl-7-(trifluoromethyl)-quinoline-3-carboxylic acid amide]: in experiment [3], the EC50 was determined as 307 nM and the Emax worked out at 157%.

Regarding `CNc1nc2cc(C(F)(F)F)ccc2c(C)c1C(=O)NCc1cccc(F)c1` [Example 9, N-[(3-fluorophenyl)-methyl]-4-methyl-2-methylamino-7-(trifluoromethyl)-quinoline-3-carboxylic acid amide], in experiment [3], the EC50 was determined as 403 nM and the Emax stood at 111%.

Turning to `Cc1c(C(=O)NCc2cccc(F)c2)c(N2CCOCC2)nc2cc(C(F)(F)F)ccc12` [Example 10, N-[(3-Fluorophenyl)-methyl]-4-methyl-2-morpholin-4-yl-7-(trifluoromethyl)-quinoline-3-carboxylic acid amide], in experiment [3], the EC50 stood at 1070 nM and the Emax stood at 181%.

For orientation: EC50 means the concentration at which the effect is half-maximal. A higher EC50 goes with a less potent agent.

The values are drawn from patent US8470852B2, “Substituted 2-amino-quinoline-3-carboxamides as KCNQ2/3 modulators” (Gruenenthal GmbH, priority 2010, dated 2013).
